These results are taken from ChEMBL document CHEMBL3046422, “Insecticidal activity of imidacloprid derivatives with an alkoxy group at the C5 position of the pyridine ring” (2006).

Common to all, as to assay type: functional
Assay [1] deals with Periplaneta americana. Kind of assay: Insecticidal activity against adult male Periplaneta americana (American cockroach) dosed through injection into abdomen assessed as mortality measured 24 hr post dose pre-treated with 50 ug metabolic inhibitor PB 1 hr before compound injection.
The test system of assay [2] is Periplaneta americana. Kind of assay: Insecticidal activity against adult male Periplaneta americana (American cockroach) dosed through injection into abdomen assessed as mortality measured 24 hr post dose pre-treated with 50 ug metabolic inhibitor PB and 50 ug NIA16388 1 hr before compound injection.
Assay [3] deals with Periplaneta americana. As to the kind of experiment: Insecticidal activity against adult male Periplaneta americana (American cockroach) dosed through injection into abdomen assessed as mortality measured 24 hr post dose.

Where only a bound is given, the exact number is not on record here.

In the case of `O=[N+]([O-])/N=C1\NCCN1Cc1ccc(Cl)nc1` [IMIDACLOPRID], the figures for the “log(1/MLD)” value in assay [1], in assay [2] and in assay [3] were 10.15, 10.15 and 8.96, respectively.
Turning to `CCCOc1cc(CN2CCN/C2=N\[N+](=O)[O-])cnc1Cl`, the “log(1/MLD)” value is 6.89 in assay [1], 6.89 in assay [2] and under 6.86 in assay [3].
For `CC(C)Oc1cc(CN2CCN/C2=N\[N+](=O)[O-])cnc1Cl`, the “log(1/MLD)” value in assay [1] worked out at 7.89; in assay [2], 8.1; in assay [3] it was 6.99.
Regarding `CCCCCOc1cc(CN2CCN/C2=N\[N+](=O)[O-])cnc1Cl`, the figures for the “log(1/MLD)” value in assay [1], in assay [2] and in assay [3] were 6.46, 6.46 and 5.86, respectively.
Regarding `COc1cc(CN2CCN/C2=N\[N+](=O)[O-])cnc1Cl`, the “log(1/MLD)” value is recorded as 8.74 in assay [1], 8.74 in assay [2] and 7.43 in assay [3].
`CCCCOc1cc(CN2CCN/C2=N\[N+](=O)[O-])cnc1Cl`: the “log(1/MLD)” value in assay [1] was 8.12; in assay [2], 8.12; in assay [3] it was 7.12.
As for `O=[N+]([O-])/N=C1/NCCN1Cc1cnc(Cl)c(F)c1` [5-FLUOROIMIDACLOPRID], the entries for the “log(1/MLD)” value in assay [1], in assay [2] and in assay [3] were 9.91, 9.91 and 8.82, respectively.
As for `CCOc1cc(CN2CCN/C2=N\[N+](=O)[O-])cnc1Cl`, the “log(1/MLD)” value is reported as 7.87 in assay [1], 8.08 in assay [2] and 7.07 in assay [3].
For `O=[N+]([O-])/N=C1\NCCN1Cc1cnc(Cl)c(Cl)c1` [5-CHLOROIMIDACLOPRID] the same measures were 9.05, 9.05 and 8.35.
